Laboratory results from patent US12421207B2 (CMG Pharmaceutical Co., Ltd., priority 2022, dated 2025).
Read-outs that look alike come from different tables or passages of the source.

Tests used:
HCC827/GR cells = assay: Cell viability assay (CellTiter-Glo 2.0), gefitinib-resistant HCC827/GR cells; format: cell-based, human; details: Homo sapiens, HCC827, 72 h drug treatment, read-out: Relative cell viability, IC50 HCC827GR
Summary of the method: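 Gefitinib-resistant HCC827 cells, derived by over 3 months' escalating EGFR TKI exposure, seeded at 1,000 cells/well. Treated 72 h with a 10-point dose range from 1 nM to 10,000 nM. Viability read by CellTiter-Glo 2.0 luminescence.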

PC9/ER cells = assay: Cell viability assay (CellTiter-Glo 2.0), erlotinib-resistant PC9/ER cells; format: cell-based; details: Homo sapiens, PC-9/ER, 72 h drug treatment, read-out: Relative cell viability, IC50 PC9ER
From the text: (§1) To explore c-MET and AXL mechanisms of EGFR TKI resistance, resistant cells of the EGFR TKI hypersensitive EGFR exon 19 mutant NSCLC cell line, HCC827 and PC9 were generated by exposing these cells to increasing concentrations of EGFR TKI for over 3 months.
(§2) Gefitinib-resistant cells were referred to as HCC827/GR. […] Osimertinib-resistant cells were referred to as HCC827/OR.

HCC827/ER cells = assay: Cell viability assay (CellTiter-Glo 2.0), erlotinib-resistant HCC827/ER cells; format: cell-based, human; details: Homo sapiens, HCC827ER, read-out: Relative cell viability
From the text: as §1, §2

HCC827/OR cells = assay: Cell viability assay (CellTiter-Glo 2.0), osimertinib-resistant HCC827/OR cells; format: cell-based, human; details: Homo sapiens, HCC827, 72 h drug treatment, read-out: Relative cell viability, IC50 HCC827OR
From the text: as §1, §2

[1] = Table 2, EGFR TKI resistant cells, combination with EGFR TKI
[2] = Table 2, 72 h drug treatment, EGFR TKI resistant cells, combination with EGFR TKI
[3] = Table 4, combinations of EGFR TKIs and inhibitor of Formula (I)
[4] = Table 4, 72 h drug treatment, combinations of EGFR TKIs and inhibitor of Formula (I)

## COCCN1CCN(C(C)(C)C#Cc2c(Oc3ccc(NC(=O)c4cn(C(C)C)c(=O)n(-c5ccc(F)cc5)c4=O)cc3F)ccnc2N)CC1 [Example 20, N-(4-(2-amino-3-(3-(4-(2-methoxyethyl)piperazin-1-yl)-3-methylbut-1-ynyl)pyridin-4-yloxy)-3-fluorophenyl)-3-(4-fluorophenyl)-1-isopropyl-2,4-dioxo-1,2,3,4-tetrahydropyrimidine-5-carboxamide]
HCC827/GR cells; [1]
  IC50: < 0.01 µM
PC9/ER cells; [1]
  IC50: < 0.01 µM
HCC827/ER cells; [2]
  IC50: < 0.01 µM
HCC827/OR cells; [1]
  IC50: < 0.01 µM

## CC(C)n1cc(C(=O)Nc2ccc(Oc3ccnc(N)c3/C=C/C(=O)N3CCNCC3)c(F)c2)c(=O)n(-c2ccc(F)cc2)c1=O [Example 3, (E)-N-(4-(2-amino-3-(3-oxo-3-(piperazin-1-yl)prop-1-enyl)pyridin-4-yloxy)-3-fluorophenyl)-3-(4-fluorophenyl)-1-isopropyl-2,4-dioxo-1,2,3,4-tetrahydropyrimidine-5-carboxamide]
HCC827/GR cells; [1]
  IC50: < 0.1 µM
PC9/ER cells; [1]
  IC50: < 1 µM
HCC827/ER cells; [2]
  IC50: < 0.1 µM
HCC827/OR cells; [1]
  IC50: < 0.1 µM

## C=CCn1cc(C(=O)Nc2ccc(Oc3ccnc(N)c3C#CCC3CCNCC3)c(F)c2)c(=O)n(CC=C)c1=O [Example 71, 1,3-dialyl-N-(4-(2-amino-3-(3-(piperidin-4-yl)prop-1-ynyl)pyridin-4-yloxy)-3-fluorophenyl)-2,4-dioxo-1,2,3,4-tetrahydropyrimidine-5-carboxamide]
HCC827/GR cells; [3]
  IC50: < 1 µM
PC9/ER cells; [3]
  IC50: < 1 µM
HCC827/ER cells; [4]
  IC50: < 1 µM
HCC827/OR cells; [3]
  IC50: < 1 µM

## C=CCn1cc(C(=O)Nc2ccc(Oc3ccnc(N)c3C#CCC3CCN(C)CC3)c(F)c2)c(=O)n(CC=C)c1=O [Example 69, 1,3-diallyl-N-(4-(2-amino-3-(3-(1-methylpiperdin-4-yl)prop-1-ynyl)pyridin-4-yloxy)-3-fluorophenyl)-2,4-dioxo-1,2,3,4-tetrahydropyrimidine-5-carboxamide]
HCC827/GR cells; [3]
  IC50: < 1 µM
PC9/ER cells; [3]
  IC50: < 1 µM
HCC827/ER cells; [4]
  IC50: < 1 µM
HCC827/OR cells; [3]
  IC50: < 1 µM

## CN1CCC(CC#Cc2c(Oc3ccc(NC(=O)c4cn(C5CCOCC5)c(=O)n(-c5ccc(F)cc5)c4=O)cc3F)ccnc2N)CC1 [Example 60, N-(4-(2-amino-3-(3-(1-methylpiperidin-4-yl)prop-1-ynyl)pyridin-4-yloxy)-3-fluorophenyl)-3-(4-fluorophenyl)-2,4-dioxo-1-(tetrahydro-2H-pyran-4-yl)-1,2,3,4-tetrahydropyrimidine-5-carboxamide]
HCC827/GR cells; [3]
  IC50: < 0.1 µM
PC9/ER cells; [3]
  IC50: < 0.1 µM
HCC827/ER cells; [4]
  IC50: < 0.1 µM
HCC827/OR cells; [3]
  IC50: < 0.1 µM

## CC(C)(C#Cc1c(Oc2ccc(NC(=O)c3cn(C4CCOCC4)c(=O)n(-c4ccc(F)cc4)c3=O)cc2F)ccnc1N)N1CCNCC1 [Example 58, N-(4-(2-amino-3-(3-methyl-3-(piperazin-1-yl)but-1-ynyl)pyridin-4-yloxy)-3-fluorophenyl)-3-(4-fluorophenyl)-2,4-dioxo-1-(tetrahydro-2H-pyran-4-yl)-1,2,3,4-tetrahydropyrimidine-5-carboxamide]
HCC827/GR cells; [3]
  IC50: < 1 µM
PC9/ER cells; [3]
  IC50: < 1 µM
HCC827/ER cells; [4]
  IC50: < 1 µM
HCC827/OR cells; [3]
  IC50: < 1 µM

## CC(C)n1cc(C(=O)Nc2ccc(Oc3ccnc(N)c3C#CCN3CCOCC3)c(F)c2)c(=O)n(-c2ccc(F)cc2)c1=O [Example 24, N-(4-(2-amino-3-(3-morpholinoprop-1-ynyl)pyridin-4-yloxy)-3-fluorophenyl)-3-(4-fluorophenyl)-1-isopropyl-2,4-dioxo-1,2,3,4-tetrahydropyrimidine-5-carboxamide]
HCC827/GR cells; [1]
  IC50: < 0.01 µM
PC9/ER cells; [1]
  IC50: < 0.01 µM
HCC827/ER cells; [2]
  IC50: < 0.01 µM
HCC827/OR cells; [1]
  IC50: < 0.01 µM

## CC(C)(C#Cc1c(Oc2ccc(NC(=O)c3c[nH]c(=O)n(-c4ccc(F)cc4)c3=O)cc2F)ccnc1N)N1CCNCC1 [Example 52, N-(4-(2-amino-3-(3-methyl-3-(piperazin-1-yl)but-1-ynyl)pyridin-4-yloxy)-3-fluorophenyl)-3-(4-fluorophenyl)-2,4-dioxo-1,2,3,4-tetrahydropyrimidine-5-carboxamide]
HCC827/GR cells; [3]
  IC50: < 10 µM
PC9/ER cells; [3]
  IC50: < 10 µM
HCC827/ER cells; [4]
  IC50: < 10 µM
HCC827/OR cells; [3]
  IC50: > 10 µM

## Nc1nccc(Oc2ccc(NC(=O)c3cn(C4CCOCC4)c(=O)n(-c4ccc(F)cc4)c3=O)cc2F)c1C#CCC1CCNCC1 [Example 59, N-(4-(2-amino-3-(3-(piperidin-4-yl)prop-1-ynyl)pyridin-4-yloxy)-3-fluorophenyl)-3-(4-fluorophenyl)-2,4-dioxo-1-(tetrahydro-2H-pyran-4-yl)-1,2,3,4-tetrahydropyrimidine-5-carboxamide]
HCC827/GR cells; [3]
  IC50: < 1 µM
PC9/ER cells; [3]
  IC50: < 1 µM
HCC827/ER cells; [4]
  IC50: < 1 µM
HCC827/OR cells; [3]
  IC50: < 1 µM

## CN(C)C(=O)Cn1cc(C(=O)Nc2ccc(Oc3ccnc(N)c3C#CC(C)(C)N3CCOCC3)c(F)c2)c(=O)n(-c2ccc(F)cc2)c1=O [Example 33, N-(4-((2-amino-3-(3-methyl-3-morpholinobut-1-yn-1-yl)pyridin-4-yl)oxy)-3-fluorophenyl)-1-(2-(dimethylamino)-2-oxoethyl)-3-(4-fluorophenyl)-2,4-dioxo-1,2,3,4-tetrahydropyrimidine-5-carboxamide]
HCC827/GR cells; [3]
  IC50: < 1 µM
PC9/ER cells; [3]
  IC50: < 1 µM
HCC827/ER cells; [4]
  IC50: < 1 µM
HCC827/OR cells; [3]
  IC50: < 1 µM

## CN1CCC(CC#Cc2c(Oc3ccc(NC(=O)c4c[nH]c(=O)n(-c5ccc(F)cc5)c4=O)cc3F)ccnc2N)CC1 [Example 54, N-(4-(2-amino-3-(3-(1-methylpiperidin-4-yl)prop-1-ynyl)pyridin-4-yloxy)-3-fluorophenyl)-3-(4-fluorophenyl)-2,4-dioxo-1,2,3,4-tetrahydropyrimidine-5-carboxamide]
HCC827/GR cells; [3]
  IC50: < 1 µM
PC9/ER cells; [3]
  IC50: < 1 µM
HCC827/ER cells; [4]
  IC50: < 1 µM
HCC827/OR cells; [3]
  IC50: < 1 µM
